Values after ≈ are worked out from the molar mass of the structure shown.

One data set concerns Staphylococcus aureus. Briefly: Antibacterial activity against methicillin-susceptible Staphylococcus aureus DRCC 035. The data set is classed as functional.
Details: not given
Regarding `CC(=O)NC[C@H]1CN(c2ccc(N3CCN(C(=O)C(=O)c4cn(C)c5ccccc45)CC3)c(F)c2)C(=O)O1`, the MIC stood at 2 µg/mL (≈ 3.83 µM).

For the compound `O=C(C(=O)N1CCN(c2ccc(N3C[C@H](Cn4ccnn4)OC3=O)cc2F)CC1)c1c[nH]c2ccc(Br)cc12`, the MIC is 2 µg/mL (≈ 3.35 µM).

Take `O=C(C(=O)N1CCN(c2ccc(N3C[C@H](CNC(=O)C(Cl)Cl)OC3=O)cc2F)CC1)c1c[nH]c2ccc(Br)cc12`: the MIC was determined as 1 µg/mL (≈ 1.53 µM).

In turn, `CC(=O)NC[C@H]1CN(c2ccc(N3CCN(C(=O)C(=O)c4c[nH]c5ncccc45)CC3)c(F)c2)C(=O)O1` displayed an MIC of 2 µg/mL (≈ 3.93 µM).

Another data set has as its system Staphylococcus aureus. The data set can be described thus: Antibacterial activity against methicillin-resistant Staphylococcus aureus DRCC 019.
Details: not given
The data set is classed as functional.
With `CC(=O)NC[C@H]1CN(c2ccc(N3CCN(C(=O)C(=O)c4cn(C)c5ccccc45)CC3)c(F)c2)C(=O)O1`, the MIC is 1 µg/mL (≈ 1.92 µM).

`O=C(C(=O)N1CCN(c2ccc(N3C[C@H](Cn4ccnn4)OC3=O)cc2F)CC1)c1c[nH]c2ccc(Br)cc12` yielded an MIC of 0.5 µg/mL (≈ 0.838 µM).

`O=C(C(=O)N1CCN(c2ccc(N3C[C@H](CNC(=O)C(Cl)Cl)OC3=O)cc2F)CC1)c1c[nH]c2ccc(Br)cc12` showed an MIC of 1 µg/mL (≈ 1.53 µM).

As for `CC(=O)NC[C@H]1CN(c2ccc(N3CCN(C(=O)C(=O)c4c[nH]c5ncccc45)CC3)c(F)c2)C(=O)O1`, the MIC came to 1 µg/mL (≈ 1.97 µM).

A further data set has as its system Staphylococcus aureus. The data set can be described thus: Antibacterial activity against linezolid-resistant Staphylococcus aureus DRCC 564. It is filed as functional.
Details: not given
For `O=C(C(=O)N1CCN(c2ccc(N3C[C@H](Cn4ccnn4)OC3=O)cc2F)CC1)c1c[nH]c2ccc(Br)cc12`, the MIC is 8 µg/mL (≈ 13.4 µM).

Take `O=C(C(=O)N1CCN(c2ccc(N3C[C@H](CNC(=O)C(Cl)Cl)OC3=O)cc2F)CC1)c1c[nH]c2ccc(Br)cc12`: the MIC was 4 µg/mL (≈ 6.1 µM).

Another data set relates to Enterococcus faecalis. Briefly: Antibacterial activity against vancomycin-susceptible Enterococcus faecalis DRCC 034. It is filed as functional.
Details: not given
In turn, `CC(=O)NC[C@H]1CN(c2ccc(N3CCN(C(=O)C(=O)c4cn(C)c5ccccc45)CC3)c(F)c2)C(=O)O1` displayed an MIC of 1 µg/mL (≈ 1.92 µM).

`O=C(C(=O)N1CCN(c2ccc(N3C[C@H](Cn4ccnn4)OC3=O)cc2F)CC1)c1c[nH]c2ccc(Br)cc12`: the MIC is 1 µg/mL (≈ 1.68 µM).

With `O=C(C(=O)N1CCN(c2ccc(N3C[C@H](CNC(=O)C(Cl)Cl)OC3=O)cc2F)CC1)c1c[nH]c2ccc(Br)cc12`, the MIC came to 1 µg/mL (≈ 1.53 µM).

For `CC(=O)NC[C@H]1CN(c2ccc(N3CCN(C(=O)C(=O)c4c[nH]c5ncccc45)CC3)c(F)c2)C(=O)O1`, the MIC worked out at 1 µg/mL (≈ 1.97 µM).

A further data set has as its system Enterococcus faecalis. The data set can be described thus: Antibacterial activity against vancomycin-resistant Enterococcus faecalis DRCC 153. The data set is classed as functional.
Details: not given
`CC(=O)NC[C@H]1CN(c2ccc(N3CCN(C(=O)C(=O)c4cn(C)c5ccccc45)CC3)c(F)c2)C(=O)O1` returned an MIC of 1 µg/mL (≈ 1.92 µM).

The compound `O=C(C(=O)N1CCN(c2ccc(N3C[C@H](Cn4ccnn4)OC3=O)cc2F)CC1)c1c[nH]c2ccc(Br)cc12` had an MIC of 0.5 µg/mL (≈ 0.838 µM).

In the case of `O=C(C(=O)N1CCN(c2ccc(N3C[C@H](CNC(=O)C(Cl)Cl)OC3=O)cc2F)CC1)c1c[nH]c2ccc(Br)cc12`, the MIC amounted to 0.25 µg/mL (≈ 0.381 µM).

Consider `CC(=O)NC[C@H]1CN(c2ccc(N3CCN(C(=O)C(=O)c4c[nH]c5ncccc45)CC3)c(F)c2)C(=O)O1`, for which the MIC worked out at 0.5 µg/mL (≈ 0.983 µM).

The next data set has as its system Enterococcus faecium. Briefly: Antibacterial activity against vancomycin-resistant Enterococcus faecium DRCC 154. It is filed as functional.
Details: not given
`CC(=O)NC[C@H]1CN(c2ccc(N3CCN(C(=O)C(=O)c4cn(C)c5ccccc45)CC3)c(F)c2)C(=O)O1` came in with an MIC of 2 µg/mL (≈ 3.83 µM).

`O=C(C(=O)N1CCN(c2ccc(N3C[C@H](Cn4ccnn4)OC3=O)cc2F)CC1)c1c[nH]c2ccc(Br)cc12`: the MIC came to 0.5 µg/mL (≈ 0.838 µM).

`O=C(C(=O)N1CCN(c2ccc(N3C[C@H](CNC(=O)C(Cl)Cl)OC3=O)cc2F)CC1)c1c[nH]c2ccc(Br)cc12` yielded an MIC of 0.5 µg/mL (≈ 0.763 µM).

The compound `CC(=O)NC[C@H]1CN(c2ccc(N3CCN(C(=O)C(=O)c4c[nH]c5ncccc45)CC3)c(F)c2)C(=O)O1` registered an MIC of 1 µg/mL (≈ 1.97 µM).

Another data set has as its system Enterococcus faecalis. Briefly: Antibacterial activity against linezolid-resistant Enterococcus faecalis DRCC 632. The data set is classed as functional.
Details: not given
Compound `O=C(C(=O)N1CCN(c2ccc(N3C[C@H](Cn4ccnn4)OC3=O)cc2F)CC1)c1c[nH]c2ccc(Br)cc12` displayed an MIC of 16 µg/mL (≈ 26.8 µM).

Compound `O=C(C(=O)N1CCN(c2ccc(N3C[C@H](CNC(=O)C(Cl)Cl)OC3=O)cc2F)CC1)c1c[nH]c2ccc(Br)cc12` gave an MIC of 4 µg/mL (≈ 6.1 µM).

Another data set deals with Moraxella catarrhalis. Briefly: Antibacterial activity against beta-lactamase deficient Moraxella catarrhalis DRCC 300. The data set is classed as functional.
Details: not given
As for `O=C(C(=O)N1CCN(c2ccc(N3C[C@H](Cn4ccnn4)OC3=O)cc2F)CC1)c1c[nH]c2ccc(Br)cc12`, the MIC was 4 µg/mL (≈ 6.71 µM).

On to `O=C(C(=O)N1CCN(c2ccc(N3C[C@H](CNC(=O)C(Cl)Cl)OC3=O)cc2F)CC1)c1c[nH]c2ccc(Br)cc12`, for which the MIC worked out at 2 µg/mL (≈ 3.05 µM).

The next data set has as its system Haemophilus influenzae. The data set can be described thus: Antibacterial activity against beta-lactamase deficient Haemophilus influenzae DRCC 433. It is filed as functional.
Details: not given
In the case of `CC(=O)NC[C@H]1CN(c2ccc(N3CCN(C(=O)C(=O)c4cn(C)c5ccccc45)CC3)c(F)c2)C(=O)O1`, the MIC is above 32 µg/mL.

Turning to `O=C(C(=O)N1CCN(c2ccc(N3C[C@H](Cn4ccnn4)OC3=O)cc2F)CC1)c1c[nH]c2ccc(Br)cc12`, the MIC was above 32 µg/mL.

`O=C(C(=O)N1CCN(c2ccc(N3C[C@H](CNC(=O)C(Cl)Cl)OC3=O)cc2F)CC1)c1c[nH]c2ccc(Br)cc12`: the MIC is above 32 µg/mL.

The compound `CC(=O)NC[C@H]1CN(c2ccc(N3CCN(C(=O)C(=O)c4c[nH]c5ncccc45)CC3)c(F)c2)C(=O)O1` registered an MIC above 32 µg/mL.

Another data set concerns Staphylococcus aureus. Briefly: Antibacterial activity against Staphylococcus aureus DRCC 035 infected mouse systemic infection model administered orally for 1 day at 1 and 5 hrs post-infection and measured daily for 5 days. The data set is classed as functional. The settings on record: po.
As for `O=C(C(=O)N1CCN(c2ccc(N3C[C@H](Cn4ccnn4)OC3=O)cc2F)CC1)c1c[nH]c2ccc(Br)cc12`, it took a dose of 28.9 mg/kg to reach the 50% effect level (ED50).

The compound `O=C(C(=O)N1CCN(c2ccc(N3C[C@H](CNC(=O)C(Cl)Cl)OC3=O)cc2F)CC1)c1c[nH]c2ccc(Br)cc12` had an ED50 above 30 mg/kg.

`CC(=O)NC[C@H]1CN(c2ccc(N3CCN(C(=O)C(=O)c4c[nH]c5ncccc45)CC3)c(F)c2)C(=O)O1` came in with an ED50 above 30 mg/kg.

Test system in another data set: not listed separately
Briefly: AUC (0 to t) in Swiss albino mouse at 10 mg/kg, po. The data set is classed as ADME, organism-based. Also noted: dose 10 mg/kg, route oral. The settings on record: plasma.
Compound `CC(=O)NC[C@H]1CN(c2ccc(N3CCN(C(=O)C(=O)c4c[nH]c5ncccc45)CC3)c(F)c2)C(=O)O1` gave an AUC(0-t) of 3360 ng·h/mL.

Test system in another data set: not listed separately
The data set can be described thus: Tmax in Swiss albino mouse at 10 mg/kg, po. The data set is classed as ADME, organism-based. More on the design: dose 10 mg/kg, route oral. The settings on record: in vivo.
Turning to `CC(=O)NC[C@H]1CN(c2ccc(N3CCN(C(=O)C(=O)c4c[nH]c5ncccc45)CC3)c(F)c2)C(=O)O1`, the Tmax amounted to 30 min.

Test system in the next data set: not listed separately
The data set can be described thus: Cmax in Swiss albino mouse at 10 mg/kg, po. More on the design: dose 10 mg/kg, route oral. To be noted: in vivo. It is filed as ADME, organism-based.
In turn, `CC(=O)NC[C@H]1CN(c2ccc(N3CCN(C(=O)C(=O)c4c[nH]c5ncccc45)CC3)c(F)c2)C(=O)O1` returned a Cmax of 1050 ng/mL.

Test system in the next data set: not listed separately
Briefly: Half life in Swiss albino mouse at 10 mg/kg, po. It is filed as ADME, organism-based. More on the design: dose 10 mg/kg, route oral. The settings on record: in vivo.
`CC(=O)NC[C@H]1CN(c2ccc(N3CCN(C(=O)C(=O)c4c[nH]c5ncccc45)CC3)c(F)c2)C(=O)O1` had a half-life of 52.2 min.

Test system in another data set: not listed separately
Briefly: Drug elimination in Swiss albino mouse at 10 mg/kg, po. The settings on record: in vivo. Also noted: dose 10 mg/kg, route oral. The data set is classed as ADME, organism-based.
With `CC(=O)NC[C@H]1CN(c2ccc(N3CCN(C(=O)C(=O)c4c[nH]c5ncccc45)CC3)c(F)c2)C(=O)O1`, the k el is 0.000219 s⁻¹.

The values are drawn from ChEMBL document CHEMBL1144189, “Novel and potent oxazolidinone antibacterials featuring 3-indolylglyoxamide substituents” (Bioorg Med Chem Lett, 2008).
